Data reported in BindingDB's records for doi:10.1021/jm970815r (Eisai, 1998).

Test: Inhibition of Phosphodiesterase 5 from porcine platelets

| SMILES | IC50 |
| --- | --- |
| COc1ccc(CNc2nnc(Cl)c3ccc([N+](=O)[O-])cc23)cc1Cl [(3-Chloro-4-methoxy-benzyl)-(4-chloro-7-nitro-phthalazin-1-yl)-amine] | 3.5 nM |
| CCOc1ccc(CNc2nnc(Cl)c3ccc(C#N)cc23)cc1Cl [1-Chloro-4-(3-chloro-4-ethoxy-benzylamino)-phthalazine-6-carbonitrile] | 49 nM |
| COc1ccc(CNc2nnc(Cl)c3ccc(C(F)(F)F)cc23)cc1Cl [(3-Chloro-4-methoxy-benzyl)-(4-chloro-7-trifluoromethyl-phthalazin-1-yl)-amine] | 5.3 nM |
| COc1ccc(CNc2nnc(Cl)c3cc(Cl)ccc23)cc1Cl [(3-Chloro-4-methoxy-benzyl)-(4,6-dichloro-phthalazin-1-yl)-amine] | 810 nM |
| COc1ccc(CNc2nnc(Cl)c3cc(C#N)ccc23)cc1Cl [4-Chloro-1-(3-chloro-4-methoxy-benzylamino)-phthalazine-6-carbonitrile] | 140 nM |
| COc1ccc(CNc2nnc(Cl)c3ccc(C#N)cc23)cc1Cl | 4.8 nM |
| O=[N+]([O-])c1ccc2c(Cl)nnc(NCc3ccc4c(c3)OCO4)c2c1 [Benzo[1,3]dioxol-5-ylmethyl-(4-chloro-7-nitro-phthalazin-1-yl)-amine] | 63 nM |
| COc1ccc(CNc2nnc(Cl)c3ccc(C#N)cc23)cc1 [1-Chloro-4-(4-methoxy-benzylamino)-phthalazine-6-carbonitrile] | 140 nM |
